Data reported in patent US8198434B2, “Process for preparing cefsulodin sodium” (IDEXX Laboratories, Inc., priority 2008, dated 2012).

Key:
Assay type in all cases: physicochemical
[1] = Stability study of cefsulodin sodium stored at 55° C., purity by HPLC (Example 3); settings: for Purity Day 0: Day 0, HPLC peak area; for Purity Day 7: Day 7, HPLC peak area; for Purity Day 14: Day 14, HPLC peak area; for Purity Day 21: Day 21, HPLC peak area; for Purity Day 28: Day 28, HPLC peak area; for Purity Day 35: Day 35, HPLC peak area; for Purity Day 42: Day 42, HPLC peak area; for Purity Day 49: Day 49, HPLC peak area; for Purity Day 56: Day 56, HPLC peak area; for Purity Day 63: Day 63, HPLC peak area; for Purity Day 70: Day 70, HPLC peak area
Experimental: (§1) Three lots of cefsulodin sodium, prepared according to the process described in Example 2, were stored at 55° C. and 40° C. and the purity of the sample determined as a function of time using HPLC. […] The stability of a lyophilized sample of cefsulodin sodium containing about 5-6% water at 55° C. was also determined. The lyophilized sample was prepared by suspending cefsulodin in water, adding sodium hydroxide until the cefsulodin dissolved, and then removing the water by lyophilization. The area of the HPLC peak corresponding to cefsulodin was used to determine purity. The following assay was used to determine purity:
(§2) 1. 25 mM Sodium Acetate pH 4.5 • a. Measure out 2 L of HPLC grade water. • b. Add 4.1 g of sodium acetate. • c. Mix until dissolved. • d. Adjust the pH to 4.5 with HPLC grade acetic acid. • e. Filter the solution through a nylon filter.
(§3) 2. 3% acetonitrile-97% 25 mM sodium acetate pH 4.5 (Mobile Phase A) • a. Measure out 1940 mL of 25 mM sodium acetate into a 2 L flask. • b. Add 60 mL of HPLC grade acetonitrile. • c. Mix well.
(§4) 3. HPLC Grade acetonitrile (Mobile Phase B) • a. Transfer acetonitrile into a 1 L flask. Sample Preparation:
(§5) 1. Weigh out about 10 mg of cefsulodin into a 15 mL conical tube.
(§6) 2. Add […] of mobile phase A and mix to dissolve (1 mg/mL cefsulodin Stock solution).
(§7) 3. Transfer 1 mL of cefsulodin stock solution into another 15 mL conical tube.
(§8) 4. Add 7 mL of mobile phase A to make a 0.125 mg/mL solution of cefsulodin.
(§9) 5. Filter this solution through a nylon syringe filter into an HPLC vial.
(§10) 6. Analyze the sample by HPLC using the conditions described below.
(§11) Solvents: Pump A-Mobile Phase A • Pump B-Mobile Phase B
(§12) Detection wavelength: 254 nm
(§13) Initial Conditions: 100% Pump A-0% Pump B
(§14) The above gradient can be summarized as follows: maintain at 0% B for 0.3 min; at 0.3 min run a gradient to 70% B for 2.5 min; maintain at 70% B for 1 min; at 3.5 min go back to 0% B for 0.5 min; run at 0% B until the 8.00 min mark.

[2] = Stability study of cefsulodin sodium stored at 40° C., purity by HPLC (Example 3); settings: for Purity Day 0: Day 0, HPLC peak area; for Purity Day 7: Day 7, HPLC peak area; for Purity Day 14: Day 14, HPLC peak area; for Purity Day 21: Day 21, HPLC peak area; for Purity Day 28: Day 28, HPLC peak area; for Purity Day 35: Day 35, HPLC peak area; for Purity Day 42: Day 42, HPLC peak area; for Purity Day 49: Day 49, HPLC peak area; for Purity Day 56: Day 56, HPLC peak area; for Purity Day 63: Day 63, HPLC peak area; for Purity Day 70: Day 70, HPLC peak area
Experimental: as §1, §2, §3, §4, §5, §6, §7, §8, §9, §10, §11, §12, §13, §14

[3] = Stability of needle-shaped and spherical-shaped cefsulodin sodium crystals at 55° C. (Example 5); settings: for Purity Day 1 / Purity Day 7 / Purity Day 14 / Purity Day 21: crystal form stored at 55° C.
Experimental: Needle-shaped cefsulodin sodium crystals were obtain according to a process similar to the process described in Example 2.
Spherical-shaped cefsulodin sodium crystals were obtain according to the process described in Example 3.
The stability of each crystal form was measured at 55° C.

[4] = Storage at about room temperature, purity by HPLC
Solubility in water = experiment: Solubility in water

| SMILES | Purity Day 0 [1] | Purity Day 7 [1] | Purity Day 14 [1] | Purity Day 21 [1] | Purity Day 28 [1] | Purity Day 42 [1] | Purity Day 49 [1] | Purity Day 56 [1] | Purity Day 63 [1] | Purity Day 70 [1] | Purity Day 0 [2] | Purity Day 7 [2] | Purity Day 14 [2] | Purity Day 21 [2] | Purity Day 28 [2] | Purity Day 42 [2] | Purity Day 49 [2] | Purity Day 56 [2] | Purity Day 63 [2] | Purity Day 70 [2] | further results |
| --- | --- | --- | --- | --- | --- | --- | --- | --- | --- | --- | --- | --- | --- | --- | --- | --- | --- | --- | --- | --- | --- |
| NC(=O)c1cc[n+](CC2=C(C(=O)[O-])N3C(=O)[C@@H](NC(=O)[C@@H](c4ccccc4)S(=O)(=O)[O-])[C@H]3SC2)cc1.[Na+] [Lot 1, cefsulodin sodium] | 99.2% | 97.2% | 96.0% | 94.9% | 94.3% | 91.8% | 90.9% | 90.5% | 89.8% | 89.1% | 99.2% | 98.2% | 98.2% | 97.5% | 97.2% | 96.3% | 96.4% | 96.0% | 96.0% | 95.3% | Purity Day 35 [1]: 93.4%; Purity Day 35 [2]: 96.4% |
| NC(=O)c1cc[n+](CC2=C(C(=O)[O-])N3C(=O)[C@@H](NC(=O)[C@@H](c4ccccc4)S(=O)(=O)[O-])[C@H]3SC2)cc1.[Na+] [Lot 2, cefsulodin sodium] | 99.2% | 97.1% | 96.1% | 94.7% | 94.4% | 91.8% | 91.0% | 90.1% | 89.8% | 89.2% | 99.2% | 98.5% | 98.3% | 97.7% | 97.1% | 96.5% | 96.4% | 96.4% | 96.1% | 95.6% | Purity Day 35 [1]: 92.9%; Purity Day 35 [2]: 96.8% |
| NC(=O)c1cc[n+](CC2=C(C(=O)[O-])N3C(=O)[C@@H](NC(=O)[C@@H](c4ccccc4)S(=O)(=O)[O-])[C@H]3SC2)cc1.[Na+] [Lot 3, cefsulodin sodium] | 99.3% | 96.9% | 96.1% | 94.8% | 93.9% | 93.4% | 92.6% | 92.7% | 91.3% | 91.3% | 99.3% | 98.4% | 98.5% | 98.1% | 97.9% | 96.2% | 97.2% | 97.3% | 97.0% | 97.0% | – |
| NC(=O)c1cc[n+](CC2=C(C(=O)O)N3C(=O)[C@@H](NC(=O)[C@@H](c4ccccc4)S(=O)(=O)[O-])[C@H]3SC2)cc1 [Lyophilized, cefsulodin sodium] | 98.8% | – | – | – | 80.4% | – | – | – | – | – | – | – | – | – | – | – | – | – | – | – | – |
| NC(=O)c1cc[n+](CC2=C(C(=O)[O-])N3C(=O)[C@@H](NC(=O)[C@@H](c4ccccc4)S(=O)(=O)[O-])[C@H]3SC2)cc1.[Na+] [Needle-shaped, cefsulodin sodium] | – | – | – | – | – | – | – | – | – | – | – | – | – | – | – | – | – | – | – | – | stability of crystal forms (comparison) ([3]; 55° C.): more stable than the spherical-shaped crystals; Purity Day 1 [3]: 99.2; Purity Day 7 [3]: 98.1; Purity Day 14 [3]: 96.8; Purity Day 21 [3]: 95.7 |
| NC(=O)c1cc[n+](CC2=C(C(=O)[O-])N3C(=O)[C@@H](NC(=O)[C@@H](c4ccccc4)S(=O)(=O)[O-])[C@H]3SC2)cc1.[Na+] [Spherical-shaped, cefsulodin sodium] | – | – | – | – | – | – | – | – | – | – | – | – | – | – | – | – | – | – | – | – | Purity Day 1 [3]: 98.5; Purity Day 7 [3]: 86.3; Purity Day 14 [3]: 83.7; Purity Day 21 [3]: 83.1 |
| NC(=O)c1cc[n+](CC2=C(C(=O)O)N3C(=O)[C@@H](NC(=O)[C@@H](c4ccccc4)S(=O)(=O)[O-])[C@H]3SC2)cc1 [cefsulodin sodium] | – | – | – | – | – | – | – | – | – | – | – | – | – | – | – | – | – | – | – | – | purity after storage for 29 days ([4]; about room temperature, 29 days): 80.4%; purity after storage for 56 days ([4]; about room temperature, 56 days): 76.7%; purity determined by HPLC before storage ([4]; initial, before storage at about room temperature): about 95% |
| NC(=O)c1cc[n+](CC2=C(C(=O)O)N3C(=O)[C@@H](NC(=O)[C@@H](c4ccccc4)S(=O)(=O)[O-])[C@H]3SC2)cc1 [cefsulodin] | – | – | – | – | – | – | – | – | – | – | – | – | – | – | – | – | – | – | – | – | solubility in water (Solubility in water): insoluble in water |
| NC(=O)c1cc[n+](CC2=C(C(=O)[O-])N3C(=O)[C@@H](NC(=O)[C@@H](c4ccccc4)S(=O)(=O)[O-])[C@H]3SC2)cc1.[Na+] [monosodium cefsulodin, monosodium salt of cefsulodin] | – | – | – | – | – | – | – | – | – | – | – | – | – | – | – | – | – | – | – | – | solubility in water (Solubility in water): more soluble in water that cefsulodin |
